# Values quoted from earlier work as cited in paper PMC8217170, “Phase Ib dose-escalation study of the hypoxia-modifier Myo-inositol trispyrophosphate in patients with hepatopancreatobiliary tumors” (Nature Communications, 2021).
# Assays:
# hepatocellular carcinoma = test system: hepatocellular carcinoma; set-up: method as in ref 10 (supplementary references); conditions: syngeneic, orthotopic rat model of hepatocellular carcinoma; ref 10 (supplementary references); cited from earlier work
# pancreatic carcinoma = test system: pancreatic carcinoma; set-up: method as in ref 15 (supplementary references); conditions: 100 mg/kg gemcitabine; ref 15 (supplementary references); cited from earlier work
Structure (SMILES),Rats alive after 100 days (hepatocellular carcinoma),Survival (pancreatic carcinoma) [days]
"COc1cccc2c1C(=O)c1c(O)c3c(c(O)c1C2=O)C[C@@](O)(C(=O)CO)C[C@@H]3O[C@H]1C[C@H](N)[C@H](O)[C@H](C)O1 [doxorubicin, reference compound]",one out of ten,–
"Nc1ccn([C@@H]2O[C@H](CO)[C@@H](O)C2(F)F)c(=O)n1 [gemcitabine, reference compound]",–,63
